Experimental data published in ChEMBL document CHEMBL5696439 (Cancer Res, 2010).
Active and inactive are the calls of the source. The rule behind the calls is not given here.

Experiments:
[1] = biological target: Serine/threonine-protein kinase SMG1 (Homo sapiens, UniProt Q96Q15); experiment: Inhibition of human SMG1 using glutathione S-transferase-p53 as substrate by DELFIA
[2] = biological target: Serine/threonine-protein kinase ATR (Homo sapiens, UniProt Q13535); experiment: Inhibition of ATR (unknown origin) using glutathione S-transferase-p53 as substrate by DELFIA
[3] = biological target: Aurora kinase A (Homo sapiens) (UniProt O14965); experiment: Inhibition of recombinant human full-length His-tagged AURKA expressed in insect cells at 2 uM using Ser/Thr 01 as substrate measured after 1 hr by Z'-LYTE assay relative to control; conditions: Insect cell
[4] = biological target: Aurora kinase C (Homo sapiens) (UniProt Q9UQB9); experiment: Inhibition of recombinant human full-length GST-tagged AURKC expressed in insect cells at 2 uM using Ser/Thr 19 as substrate measured after 1 hr by Z'-LYTE assay relative to control; conditions: Insect cell
[5] = biological target: Cytoplasmic tyrosine-protein kinase BMX (Homo sapiens) (UniProt P51813); experiment: Inhibition of recombinant human full-length His-tagged BMX expressed in insect cells at 2 uM using Tyr 01 as substrate measured after 1 hr by Z'-LYTE assay relative to control; conditions: Insect cell
[6] = biological target: Tyrosine-protein kinase CSK (Homo sapiens) (UniProt P41240); experiment: Inhibition of recombinant human full-length His-tagged CSK expressed in E. coli at 2 uM using Tyr 02 as substrate measured after 1 hr by Z'-LYTE assay relative to control
[7] = biological target: Ephrin type-A receptor 1 (Homo sapiens) (UniProt P21709); experiment: Inhibition of recombinant human GST-tagged EPHA1 (568-976 residues) expressed in insect cells at 2 uM using Tyr 02 as substrate measured after 1 hr by Z'-LYTE assay relative to control; conditions: Insect cell
[8] = biological target: Ephrin type-A receptor 2 (Homo sapiens) (UniProt P29317); experiment: Inhibition of recombinant human GST-tagged EPHA2 (568-976 residues) expressed in insect cells at 2 uM using Tyr 01 as substrate measured after 1 hr by Z'-LYTE assay relative to control; conditions: Insect cell
[9] = biological target: Receptor tyrosine-protein kinase erbB-4 (Homo sapiens) (UniProt Q15303); experiment: Inhibition of recombinant human GST-tagged ERBB4 (708-993 residues) expressed in insect cells at 2 uM using Tyr 01 as substrate measured after 1 hr by Z'-LYTE assay relative to control; conditions: Insect cell
[10] = biological target: Tyrosine-protein kinase Fes/Fps (Homo sapiens) (UniProt P07332); experiment: Inhibition of recombinant human full-length His-tagged FES expressed in baculovirus expression system at 2 uM using Tyr 01 as substrate measured after 1 hr by Z'-LYTE assay relative to control
[11] = biological target: Tyrosine-protein kinase Fyn (Homo sapiens) (UniProt P06241); experiment: Inhibition of recombinant human full-length His-tagged FYN expressed in insect cells at 2 uM using Tyr 02 as substrate measured after 1 hr by Z'-LYTE assay relative to control; conditions: Insect cell
[12] = biological target: G protein-coupled receptor kinase 4 (Homo sapiens) (UniProt P32298); experiment: Inhibition of recombinant human full-length GST-tagged GRK4 expressed in insect cells at 2 uM using Ser/Thr 16 as substrate measured after 1 hr by Z'-LYTE assay relative to control; conditions: Insect cell
[13] = biological target: Vascular endothelial growth factor receptor 2 (Homo sapiens) (UniProt P35968); experiment: Inhibition of recombinant human His-tagged KDR (789-1356 residues) expressed in insect cells at 2 uM using […] as substrate measured after 1 hr by Z'-LYTE assay relative to control; conditions: Insect cell
[14] = biological target: Dual specificity mitogen-activated protein kinase kinase 1 (Homo sapiens) (UniProt Q02750); experiment: Inhibition of recombinant human full length His-tagged MAP2K1 expressed in baculovirus expression system at 2 uM using Ser/Thr 03 as substrate measured after 1 hr by Z'-LYTE assay relative to control
[15] = biological target: Mitogen-activated protein kinase 3 (Homo sapiens) (UniProt P27361); experiment: Inhibition of recombinant human full length GST-tagged MAPK3 expressed in E. coli at 2 uM using Ser/Thr 03 as substrate measured after 1 hr by Z'-LYTE assay relative to control
[16] = biological target: MAP kinase-activated protein kinase 3 (Homo sapiens) (UniProt Q16644); experiment: Inhibition of recombinant human full length His-tagged MAPKAPK3 expressed in baculovirus expression system at 2 uM using Ser/Thr 04 as substrate measured after 1 hr by Z'-LYTE assay relative to control
[17] = biological target: Protein kinase C delta type (Homo sapiens) (UniProt Q05655); experiment: Inhibition of recombinant human full length GST-tagged PRKCD expressed in baculovirus expression system at 2 uM using Ser/Thr 07 as substrate measured after 1 hr by Z'-LYTE assay relative to control
[18] = biological target: Proto-oncogene tyrosine-protein kinase ROS (Homo sapiens) (UniProt P08922); experiment: Inhibition of recombinant human GST-tagged ROS1 (1883-2347 residues) expressed in insect cells at 2 uM using Tyr 01 as substrate measured after 1 hr by Z'-LYTE assay relative to control; conditions: Insect cell
[19] = biological target: SRSF protein kinase 2 (Homo sapiens) (UniProt P78362); experiment: Inhibition of recombinant human full length GST-tagged SRPK2 expressed in insect cells at 2 uM using Ser/Thr 07 as substrate measured after 1 hr by Z'-LYTE assay relative to control; conditions: Insect cell
[20] = biological target: Serine/threonine-protein kinase 25 (Homo sapiens) (UniProt O00506); experiment: Inhibition of recombinant human full length GST-tagged STK25 expressed in insect cells at 2 uM using Ser/Thr 07 as substrate measured after 1 hr by Z'-LYTE assay relative to control; conditions: Insect cell
[21] = biological target: Serine/threonine-protein kinase TBK1 (Homo sapiens) (UniProt Q9UHD2); experiment: Inhibition of recombinant human full length GST-tagged TBK1 expressed in insect cells at 2 uM using Ser/Thr 05 as substrate measured after 1 hr by Z'-LYTE assay relative to control; conditions: Insect cell
[22] = test system: Rat1; experiment: Inhibition of mTORC2 in rat Rat1 cells assessed as reduction in AKT phosphorylation at T308 level at 0.01 to 2 uM incubated for 1 hrs in the presence of IGF-1 stimulation by immunoblot assay; assay type: cell-based; conditions: dose 0.01-2 µM
[23] = test system: MDA-MB-468; experiment: Induction of apoptosis in human MDA-MB-468 cells assessed as reduction in S phase at 1 micromol/L incubated for 24 hrs by FACS analysis; assay type: functional, cell-based; conditions: dose 1.0 µmol/L
[24] = test system: U-87 MG; experiment: Antitumor activity against human U-87MG cells assessed as reduction in lactate production at 1 micromol/L incubated for 24 hrs relative to control; assay type: functional, U-87MG ATCC; set-up: scale not given: the % may be the effect or the level left; conditions: dose 1 µmol/L, at 1 µM
[25] = test system: PC3MM2; experiment: Antitumor activity against human PC3MM2 cells xenografted in female nude mouse model assessed as reduction in P-AKT at T308 level at 50 mg/kg, iv administered once a week and measured at least 8 hrs by immunoblot analysis; assay type: functional, organism-based

Sequence of G protein-coupled receptor kinase 4 (Homo sapiens) (P32298 whole entry, looked up, the tested form may be a part): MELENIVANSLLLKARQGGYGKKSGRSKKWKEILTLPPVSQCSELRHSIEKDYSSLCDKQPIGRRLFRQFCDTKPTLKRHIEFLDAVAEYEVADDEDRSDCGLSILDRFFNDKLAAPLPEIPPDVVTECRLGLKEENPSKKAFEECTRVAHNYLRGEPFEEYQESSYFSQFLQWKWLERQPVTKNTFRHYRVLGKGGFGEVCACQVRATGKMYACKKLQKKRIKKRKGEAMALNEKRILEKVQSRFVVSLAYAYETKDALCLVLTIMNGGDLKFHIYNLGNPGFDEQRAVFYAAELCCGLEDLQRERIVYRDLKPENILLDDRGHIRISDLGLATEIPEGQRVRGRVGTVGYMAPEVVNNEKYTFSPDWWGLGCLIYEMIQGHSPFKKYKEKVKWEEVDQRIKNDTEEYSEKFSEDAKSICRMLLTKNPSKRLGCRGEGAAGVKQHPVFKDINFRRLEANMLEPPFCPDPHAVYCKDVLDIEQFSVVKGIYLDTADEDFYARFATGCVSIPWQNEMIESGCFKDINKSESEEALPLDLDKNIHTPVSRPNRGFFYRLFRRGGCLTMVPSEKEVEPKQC
Sequence of Dual specificity mitogen-activated protein kinase kinase 1 (Homo sapiens) (Q02750 whole entry): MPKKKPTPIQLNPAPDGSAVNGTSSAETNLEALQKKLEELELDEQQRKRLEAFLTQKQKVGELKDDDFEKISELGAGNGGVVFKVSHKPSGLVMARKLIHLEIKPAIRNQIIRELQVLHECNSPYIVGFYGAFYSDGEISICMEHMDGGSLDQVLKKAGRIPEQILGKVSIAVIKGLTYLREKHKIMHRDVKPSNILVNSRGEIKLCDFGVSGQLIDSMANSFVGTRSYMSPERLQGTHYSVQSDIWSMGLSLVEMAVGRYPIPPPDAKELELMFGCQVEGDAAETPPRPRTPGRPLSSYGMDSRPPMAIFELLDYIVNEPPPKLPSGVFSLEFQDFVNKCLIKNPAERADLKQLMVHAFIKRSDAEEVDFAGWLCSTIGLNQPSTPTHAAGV
Sequence of Tyrosine-protein kinase Fyn (Homo sapiens) (P06241 2-537 limits assumed): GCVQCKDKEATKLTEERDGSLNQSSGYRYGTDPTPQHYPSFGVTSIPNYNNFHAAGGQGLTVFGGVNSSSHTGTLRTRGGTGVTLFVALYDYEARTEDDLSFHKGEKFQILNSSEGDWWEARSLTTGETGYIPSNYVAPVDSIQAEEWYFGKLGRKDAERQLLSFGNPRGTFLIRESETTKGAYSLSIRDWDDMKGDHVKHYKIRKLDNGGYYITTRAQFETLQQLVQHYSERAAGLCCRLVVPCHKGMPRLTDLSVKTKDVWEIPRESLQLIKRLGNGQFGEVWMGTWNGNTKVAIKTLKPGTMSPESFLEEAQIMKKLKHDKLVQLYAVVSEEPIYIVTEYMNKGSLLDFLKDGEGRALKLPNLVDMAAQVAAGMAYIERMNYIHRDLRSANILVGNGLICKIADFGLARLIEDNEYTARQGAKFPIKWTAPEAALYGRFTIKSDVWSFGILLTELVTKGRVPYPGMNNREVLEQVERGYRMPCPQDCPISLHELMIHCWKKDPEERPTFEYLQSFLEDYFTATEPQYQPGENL
Sequence of Vascular endothelial growth factor receptor 2 (Homo sapiens) (P35968 whole entry, the tested form may be a part): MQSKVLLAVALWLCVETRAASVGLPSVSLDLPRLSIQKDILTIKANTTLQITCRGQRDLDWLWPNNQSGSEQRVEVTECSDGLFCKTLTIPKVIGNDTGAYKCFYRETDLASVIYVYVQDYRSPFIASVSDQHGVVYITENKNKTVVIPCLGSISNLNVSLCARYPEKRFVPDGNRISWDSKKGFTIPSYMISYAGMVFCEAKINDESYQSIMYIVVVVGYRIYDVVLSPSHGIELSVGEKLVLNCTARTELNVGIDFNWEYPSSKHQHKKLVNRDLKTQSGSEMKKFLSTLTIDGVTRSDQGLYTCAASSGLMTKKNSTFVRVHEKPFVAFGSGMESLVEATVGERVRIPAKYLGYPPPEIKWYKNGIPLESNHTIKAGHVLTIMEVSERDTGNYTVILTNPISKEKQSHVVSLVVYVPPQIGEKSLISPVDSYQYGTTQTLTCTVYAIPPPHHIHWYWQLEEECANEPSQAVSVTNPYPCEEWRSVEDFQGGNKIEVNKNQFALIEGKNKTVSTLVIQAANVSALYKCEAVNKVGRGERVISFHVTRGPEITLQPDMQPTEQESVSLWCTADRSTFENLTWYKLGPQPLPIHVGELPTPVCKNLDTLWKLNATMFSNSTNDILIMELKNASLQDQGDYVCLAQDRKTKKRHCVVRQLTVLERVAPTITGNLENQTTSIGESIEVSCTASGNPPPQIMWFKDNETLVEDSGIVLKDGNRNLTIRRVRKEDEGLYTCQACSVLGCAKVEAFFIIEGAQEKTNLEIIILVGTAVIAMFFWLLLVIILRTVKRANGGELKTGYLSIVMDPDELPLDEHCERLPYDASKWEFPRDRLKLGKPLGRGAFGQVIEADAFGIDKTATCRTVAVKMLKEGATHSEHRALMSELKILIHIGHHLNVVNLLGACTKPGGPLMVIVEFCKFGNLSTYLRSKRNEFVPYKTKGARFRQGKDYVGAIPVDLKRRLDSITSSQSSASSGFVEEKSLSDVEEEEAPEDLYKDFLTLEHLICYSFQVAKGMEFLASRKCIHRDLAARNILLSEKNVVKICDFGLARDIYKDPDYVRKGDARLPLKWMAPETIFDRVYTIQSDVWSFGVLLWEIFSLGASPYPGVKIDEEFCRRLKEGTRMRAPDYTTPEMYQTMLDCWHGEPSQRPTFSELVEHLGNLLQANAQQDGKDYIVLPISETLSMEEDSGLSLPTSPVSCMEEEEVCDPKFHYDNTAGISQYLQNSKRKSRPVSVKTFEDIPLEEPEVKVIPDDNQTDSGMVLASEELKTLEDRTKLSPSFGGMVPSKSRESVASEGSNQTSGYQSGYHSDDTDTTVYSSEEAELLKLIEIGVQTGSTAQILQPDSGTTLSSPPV
Sequence of Serine/threonine-protein kinase TBK1 (Homo sapiens) (Q9UHD2 whole entry): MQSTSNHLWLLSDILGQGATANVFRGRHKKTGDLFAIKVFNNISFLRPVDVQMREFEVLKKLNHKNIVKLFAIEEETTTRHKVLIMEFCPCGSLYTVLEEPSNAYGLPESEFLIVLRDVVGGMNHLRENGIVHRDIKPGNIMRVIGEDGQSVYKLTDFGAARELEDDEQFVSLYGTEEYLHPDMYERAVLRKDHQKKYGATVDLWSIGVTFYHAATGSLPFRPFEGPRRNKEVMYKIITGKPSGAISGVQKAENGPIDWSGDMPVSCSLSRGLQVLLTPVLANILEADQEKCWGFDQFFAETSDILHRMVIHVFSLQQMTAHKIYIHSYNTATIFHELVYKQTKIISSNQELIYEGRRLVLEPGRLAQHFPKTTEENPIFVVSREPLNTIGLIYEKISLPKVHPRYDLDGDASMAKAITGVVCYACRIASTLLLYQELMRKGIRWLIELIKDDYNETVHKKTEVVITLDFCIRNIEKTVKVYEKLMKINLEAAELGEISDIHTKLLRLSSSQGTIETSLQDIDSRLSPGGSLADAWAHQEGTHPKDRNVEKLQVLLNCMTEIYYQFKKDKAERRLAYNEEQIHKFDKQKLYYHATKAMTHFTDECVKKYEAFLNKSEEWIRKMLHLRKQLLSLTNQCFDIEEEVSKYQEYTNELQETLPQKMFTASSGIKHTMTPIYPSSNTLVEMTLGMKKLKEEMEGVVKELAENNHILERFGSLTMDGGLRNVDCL
Sequence of Cytoplasmic tyrosine-protein kinase BMX (Homo sapiens) (P51813 whole entry): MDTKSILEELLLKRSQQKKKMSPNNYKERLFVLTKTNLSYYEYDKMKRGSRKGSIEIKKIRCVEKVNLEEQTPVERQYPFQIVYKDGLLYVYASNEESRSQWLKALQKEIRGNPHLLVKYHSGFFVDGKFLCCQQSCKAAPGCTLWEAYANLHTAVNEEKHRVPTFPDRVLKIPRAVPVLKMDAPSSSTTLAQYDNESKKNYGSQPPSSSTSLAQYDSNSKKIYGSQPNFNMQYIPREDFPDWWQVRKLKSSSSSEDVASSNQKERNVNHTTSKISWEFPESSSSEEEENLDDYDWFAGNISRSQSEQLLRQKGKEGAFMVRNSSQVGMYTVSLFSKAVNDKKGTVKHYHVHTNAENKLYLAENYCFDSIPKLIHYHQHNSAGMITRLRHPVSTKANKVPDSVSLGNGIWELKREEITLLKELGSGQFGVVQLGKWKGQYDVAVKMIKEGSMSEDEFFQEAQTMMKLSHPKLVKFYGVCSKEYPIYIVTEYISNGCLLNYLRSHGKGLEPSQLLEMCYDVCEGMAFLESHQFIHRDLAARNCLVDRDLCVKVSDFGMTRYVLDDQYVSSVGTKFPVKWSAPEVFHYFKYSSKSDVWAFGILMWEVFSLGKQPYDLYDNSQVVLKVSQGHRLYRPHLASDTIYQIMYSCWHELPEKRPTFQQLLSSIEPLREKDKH
Sequence of Aurora kinase A (Homo sapiens) (O14965 whole entry): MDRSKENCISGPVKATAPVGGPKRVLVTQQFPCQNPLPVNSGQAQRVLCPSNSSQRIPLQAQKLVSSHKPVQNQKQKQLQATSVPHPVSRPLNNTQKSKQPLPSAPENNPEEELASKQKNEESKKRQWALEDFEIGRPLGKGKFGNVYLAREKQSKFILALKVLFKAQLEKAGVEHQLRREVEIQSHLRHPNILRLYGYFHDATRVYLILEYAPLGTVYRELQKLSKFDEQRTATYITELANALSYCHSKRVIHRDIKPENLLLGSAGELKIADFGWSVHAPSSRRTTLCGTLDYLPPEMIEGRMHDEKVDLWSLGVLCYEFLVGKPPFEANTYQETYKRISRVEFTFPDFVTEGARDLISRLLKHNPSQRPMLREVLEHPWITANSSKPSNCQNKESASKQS
Sequence of Aurora kinase C (Homo sapiens) (Q9UQB9 whole entry): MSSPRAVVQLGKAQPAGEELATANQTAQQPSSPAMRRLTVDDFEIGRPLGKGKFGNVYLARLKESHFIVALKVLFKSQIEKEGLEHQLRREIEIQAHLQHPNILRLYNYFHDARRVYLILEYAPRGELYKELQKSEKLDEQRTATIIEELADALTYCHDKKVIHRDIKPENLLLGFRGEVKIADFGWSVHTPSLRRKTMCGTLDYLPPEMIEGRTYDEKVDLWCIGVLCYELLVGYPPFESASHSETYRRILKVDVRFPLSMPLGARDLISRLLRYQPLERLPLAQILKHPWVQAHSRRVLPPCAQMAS

Which results are given for `CNC(=O)Nc1ccc(-c2nc(N3CC4CCC(C3)O4)c3cnn(C4CCC5(CC4)OCCO5)c3n2)cc1`?
IC50 [1]: 1250 nM; IC50 [2]: > 10000 nM; inhibition [3]: 0%; inhibition [4]: 4%; inhibition [5]: 10%; inhibition [6]: -1%; inhibition [7]: 3%; inhibition [8]: 8%; inhibition [9]: 3%; inhibition [10]: -1%; inhibition [11]: 2%; inhibition [12]: -4%; inhibition [13]: 7%; inhibition [14]: 3%; inhibition [15]: 1%; inhibition [16]: 1%; inhibition [17]: 16%; inhibition [18]: 2%; inhibition [19]: 1%; inhibition [20]: 2%; inhibition [21]: 2%; inhibition [22]: inactive; Activity [23]: Active; Activity [24]: 48%; Activity [25]: inactive
